Values quoted from earlier work as cited in US20200225249A1, “COMPOSITIONS AND METHODS FOR THE DIAGNOSIS AND TREATMENT OF DISEASES OF THE LIVER” (Viscient Biosciences, Inc., priority 2019, published 2020).

Legend:
[1] = tested on: QPRT; details: rat hepatocytes; Shin M, et al., 1999
[2] = tested on: rat hepatocytes; details: Shin M, et al., 1999
[3] = tested on: NASH patients; details: clinical trial; Laurin J, et al., 1996
[4] = tested on: primary neurons and astrocytes; details: Braidy et al, 2011

Structure (SMILES) | QPRT expression [1] | NAD+ levels [2] | symptoms of NASH patients [3] | cell viability [4]
CCOC(=O)C(C)(C)Oc1ccc(Cl)cc1 [Clofibrate] | stimulates QPRT expression | increases NAD+ levels | failed to improve the symptoms | –
O=C(O)c1ccccc1C(=O)O [Phthalic acid, 1,2-Benzenedicarboxylic acid] | – | – | – | reduced cell viability
